Source: PubChem BioAssay (NCI)
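Test compounds were applied to cells in 96-well plates for 48 hours at 5 doses. The concentration for 50% growth inhibition is given as GI50. Definition used: TGI = concentration required for complete inhibition of growth.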

Experiments:
Assay in all cases: NCI anticancer screen, dose series, 48 h
[1] = test system: SK-MEL-2 melanoma
[2] = test system: OVCAR-3 ovarian
[3] = test system: UACC-62 melanoma
[4] = test system: IGROV1 ovarian
[5] = test system: A549 NSCLC
[6] = test system: SN12C renal
[7] = test system: SW-620 colon
[8] = test system: SF-539 CNS
[9] = test system: MCF7 breast
[10] = test system: DU-145 prostate

Cc1cc2c(c(C(=O)O)c1C)-c1cccc(F)c1C2=O
TGI [1]: > 100 µM | TGI [2]: > 100 µM | TGI [3]: > 100 µM | TGI [4]: > 100 µM | TGI [5]: > 100 µM | TGI [6]: > 100 µM | TGI [7]: > 100 µM

Cc1ccc(S(=O)OC2C3CC4CC(C3)CC2C4)cc1 (centres undefined)
TGI [2]: > 100 µM | TGI [8]: > 100 µM | TGI [3]: > 100 µM | TGI [4]: > 100 µM | TGI [5]: > 100 µM | TGI [6]: > 100 µM | TGI [7]: > 100 µM

CN(C)c1ccc(/C=C2\C=Cc3ccccc32)cc1
TGI [1]: > 100 µM | TGI [2]: > 100 µM | TGI [8]: > 100 µM | TGI [3]: > 100 µM | TGI [4]: > 100 µM | TGI [5]: > 100 µM | TGI [6]: > 100 µM | TGI [7]: > 100 µM

COc1cc2nc(NCCCCCNC(=O)c3ccco3)nc(N)c2cc1OC
TGI [1]: 36.5 µM | TGI [2]: 62.5 µM | TGI [8]: 36.2 µM | TGI [3]: 52.6 µM | TGI [4]: > 100 µM | TGI [5]: > 100 µM | TGI [6]: > 100 µM | TGI [7]: 58.1 µM

C/C=C(\C)c1cc(O)c(C)c2c1Oc1cc(O)c(Cl)c(C)c1C(=O)O2
TGI [1]: 41.8 µM | TGI [8]: 48.2 µM | TGI [5]: 74 µM | TGI [6]: 30.9 µM | TGI [7]: 37.4 µM

COC(=O)C(C)(C)N=CN(C)C
TGI [1]: > 100 µM | TGI [2]: > 100 µM | TGI [8]: > 100 µM | TGI [3]: > 100 µM | TGI [4]: > 100 µM | TGI [5]: > 100 µM | TGI [6]: > 100 µM | TGI [7]: > 100 µM

O=c1[nH]cnc2c(C3NC(CO)C(O)C3O)c[nH]c12 (centres undefined)
GI50 [2]: > 100 µM | TGI [2]: > 100 µM | GI50 [8]: > 100 µM | TGI [8]: > 100 µM | GI50 [3]: > 100 µM | TGI [3]: > 100 µM | GI50 [9]: > 100 µM | TGI [9]: > 100 µM | GI50 [10]: > 100 µM | TGI [10]: > 100 µM | GI50 [4]: > 100 µM | TGI [4]: > 100 µM | GI50 [5]: > 100 µM | TGI [5]: > 100 µM | GI50 [6]: > 100 µM | TGI [6]: > 100 µM | GI50 [7]: > 100 µM | TGI [7]: > 100 µM

C[C@@H]1O[C@@H](OC[C@H]2O[C@@H](OCCc3ccc(O)c(O)c3)[C@H](O)[C@@H](O)[C@@H]2OC(=O)/C=C/c2ccc(O)c(O)c2)[C@H](O)[C@H](O)[C@H]1O
GI50 [1]: > 100 µM | TGI [1]: > 100 µM | GI50 [2]: > 100 µM | TGI [2]: > 100 µM | GI50 [8]: > 100 µM | TGI [8]: > 100 µM | GI50 [3]: > 100 µM | TGI [3]: > 100 µM | GI50 [10]: 36.8 µM | TGI [10]: > 100 µM | GI50 [4]: > 100 µM | TGI [4]: > 100 µM | GI50 [5]: > 100 µM | TGI [5]: > 100 µM | GI50 [6]: > 100 µM | TGI [6]: > 100 µM | GI50 [7]: > 100 µM | TGI [7]: > 100 µM

Cc1cc(N(CCC#N)CCC#N)ccc1/C=C1/N=C(c2ccccc2)N(N)C1=O
TGI [1]: > 100 µM | TGI [2]: > 100 µM | TGI [8]: > 100 µM | TGI [3]: > 100 µM | TGI [4]: > 100 µM | TGI [5]: > 100 µM | TGI [6]: > 100 µM | TGI [7]: > 100 µM

CCOC1=C2N=C(Cc3ccccc3F)N=C2C(=O)c2ccccc21
TGI [1]: > 100 µM | TGI [2]: > 100 µM | TGI [8]: > 100 µM | TGI [3]: > 100 µM | TGI [5]: > 100 µM | TGI [6]: > 100 µM | TGI [7]: > 100 µM

CNS(=O)(=O)NNS(=O)(=O)c1ccc(Cl)cc1
TGI [1]: > 100 µM | TGI [2]: > 100 µM | TGI [8]: > 100 µM | TGI [3]: > 100 µM | TGI [4]: > 100 µM | TGI [5]: > 100 µM | TGI [6]: > 100 µM | TGI [7]: > 100 µM

CN(C)c1ccc(N=Nc2ccncc2)cc1
TGI [2]: > 100 µM | TGI [8]: > 100 µM | TGI [3]: > 100 µM | TGI [9]: > 100 µM | TGI [10]: > 100 µM | TGI [4]: > 100 µM | TGI [5]: > 100 µM | TGI [6]: > 100 µM | TGI [7]: > 100 µM

C=C1CCC2[C@@H](CCC3[C@]2(C)CCC[C@]3(C)C(=O)OC)[C@@H]1CC=O (some centres undefined)
TGI [1]: 91.7 µM | TGI [2]: 41.9 µM | TGI [8]: 37.6 µM | TGI [3]: 64.5 µM | TGI [4]: > 100 µM | GI50 [5]: 62 µM | TGI [5]: > 100 µM | TGI [6]: > 100 µM | TGI [7]: 37.6 µM

CCCCCCCCCCCCCP(=O)(O)NCC(N)=O
TGI [1]: > 100 µM | TGI [2]: > 100 µM | TGI [8]: > 100 µM | TGI [3]: > 100 µM | TGI [4]: > 100 µM | TGI [5]: > 100 µM | TGI [6]: > 100 µM | TGI [7]: > 100 µM

CN1COc2c(n(C)c(=O)[nH]c2=O)C1
TGI [1]: > 100 µM | TGI [2]: > 100 µM | TGI [8]: > 100 µM | TGI [3]: > 100 µM | TGI [4]: > 100 µM | TGI [5]: > 100 µM | TGI [6]: > 100 µM | TGI [7]: > 100 µM

CC1(C)OCC(C(O)C2OC(C)(C)OC2/C=N\O)O1 (centres undefined)
TGI [1]: > 100 µM | TGI [2]: > 100 µM | TGI [8]: > 100 µM | TGI [4]: > 100 µM | TGI [5]: > 100 µM | TGI [7]: > 100 µM

CCCCCCN(N)C(=O)CC#N
TGI [2]: > 100 µM | TGI [8]: > 100 µM | TGI [3]: > 100 µM | TGI [4]: > 100 µM | TGI [5]: > 100 µM | TGI [6]: > 100 µM | TGI [7]: > 100 µM

O=C(O)/C(Cl)=C(\Cl)C(=O)Nc1ccc(Cl)c(Cl)c1Cl
TGI [1]: 33.9 µM | TGI [2]: 35.5 µM | TGI [8]: 35.6 µM | TGI [3]: 26.1 µM | TGI [4]: 38.7 µM | TGI [5]: 35.2 µM | TGI [6]: 36.7 µM | TGI [7]: 35.3 µM

COc1ccc(C(Cl)=C(c2ccc(OCCN(C)C)cc2)c2ccc(OCCN(C)C)cc2)cc1
TGI [1]: 3.12 µM | TGI [2]: 5.02 µM | TGI [8]: 2.93 µM | TGI [3]: 3.16 µM | TGI [4]: 13.3 µM | TGI [5]: 3.67 µM | TGI [6]: 11.7 µM | TGI [7]: 2.75 µM

CN1CCN(Cc2ccc(NC(=O)c3[nH]ncc3Nc3ncnc4sc5c(c34)CCCC5)cc2)CC1
GI50 [1]: 0.665 µM | TGI [1]: 3.22 µM | GI50 [2]: 0.22 µM | TGI [2]: 1.34 µM | GI50 [8]: 0.457 µM | TGI [8]: 1.71 µM | GI50 [3]: 0.55 µM | TGI [3]: 1.93 µM | GI50 [4]: 0.258 µM | TGI [4]: 1.3 µM | GI50 [6]: 0.0425 µM | TGI [6]: 1.22 µM | GI50 [7]: 0.194 µM | TGI [7]: 1.05 µM

CCCCn1c(=O)c2c(nc3n2CCCN3CCc2ccc(OCC(=O)NCCN(CC)CC)cc2)n(CCCC)c1=O
GI50 [1]: 6.7 µM | TGI [1]: 15.3 µM | GI50 [2]: 4.7 µM | TGI [2]: 11.2 µM | GI50 [8]: 1.87 µM | TGI [8]: 7 µM | GI50 [9]: 1.95 µM | TGI [9]: 8.97 µM | GI50 [10]: 4.56 µM | TGI [10]: 35.3 µM | GI50 [4]: 5.83 µM | TGI [4]: 15.4 µM | GI50 [5]: 7.12 µM | TGI [5]: 15.4 µM | GI50 [6]: 5.76 µM | TGI [6]: 15.3 µM | GI50 [7]: 4.86 µM | TGI [7]: 11.2 µM

CC1(C)C2CCC13CS(=O)(=O)N1O[C@]13C(=O)O2 (some centres undefined)
TGI [1]: > 100 µM | TGI [2]: > 100 µM | TGI [8]: > 100 µM | TGI [4]: > 100 µM | TGI [5]: > 100 µM | TGI [6]: > 100 µM | TGI [7]: > 100 µM
